Where two headings read alike, the source gives them in different places.
Columns and labels:
[1] = Volatility of perfuming compounds in air; format: physicochemical
[2] = physchem
[3] = Log P (n-octanol/water) of perfuming compounds
[4] = Odor threshold of perfuming compounds in air; settings: Table 7, citrus note
[5] = Table 8, perfuming compounds having a sweet note
[6] = Table 9, perfuming compounds having a gourmand note
[7] = Table 10, perfuming compounds having a woody note
[8] = Table 6, perfuming compounds having a fruity note
[9] = n-octanol/water, perfuming compounds having a fruity note (Table 6)

## CCCCOC(C)=O [BUTYL ACETATE]
[1]
  Volatility (μg/l air): 117207.52 μg/l air
[2]; n-octanol/water
  logP: 2.11
[3]; [5]
  Log P (n-octanol/water): 2.11
[3]; [6]
  Log P (n-octanol/water): 2.11

## CC(=O)CCC1=C(C)CCCC1(C)C
[1]; [5]
  Volatility (μg/l air): 63.61 μg/l air
[1]; [7]
  Volatility (μg/l air): 63.61 μg/l air
[2]; n-octanol/water
  logP: 3.99
[3]; [7]
  Log P (n-octanol/water): 3.99

## CCCCCC1CCCC1=O (racemic) [(+−)-2-pentylcyclopentanone]
[1]; [5]
  Volatility (μg/l air): 560.22 μg/l air
[1]; [6]
  Volatility (μg/l air): 560.22 μg/l air
[2]; n-octanol/water
  logP: 3.62
[3]; [5]
  Log P (n-octanol/water): 3.62
[3]; [6]
  Log P (n-octanol/water): 3.62

## CCCCC/C=C/CCC=O [(E)-4-DECENAL]
[1]; Table 7, citrus note
  Volatility: 691.34 μg/l air
[4]
  Odor Threshold: 7.59E−05 μg/l air

## C/C=C/C(=O)[C@@H]1[C@@H](C)C=CCC1(C)C (racemic)
[1]; [5]
  Volatility (μg/l air): 143.53 μg/l air
[1]; [6]
  Volatility (μg/l air): 143.53 μg/l air
[2]; n-octanol/water
  logP: 4.13
[3]; [6]
  Log P (n-octanol/water): 4.13

## CCC(=O)/C=C/C1=C(C)CCCC1(C)C
[1]; [5]
  Volatility (μg/l air): 15.81 μg/l air
[1]; [6]
  Volatility (μg/l air): 15.81 μg/l air
[2]; n-octanol/water
  logP: 4.47
[3]; [6]
  Log P (n-octanol/water): 4.47

## C/C=C/C(=O)C1=C(C)CCCC1(C)C
[1]; [8]
  Volatility (μg/l air): 81.66 μg/l air
[1]; [7]
  Volatility (μg/l air): 81.66 μg/l air
[2]; n-octanol/water
  logP: 3.63
[3]; [7]
  Log P (n-octanol/water): 3.63

## CC(C)C(=O)OCCOc1ccccc1 [2-phenoxyethyl 2-methylpropanoate]
[2]; n-octanol/water
  logP: 2.82
[3]; [8]
  Log P (n-octanol/water): 2.82

## CCCC(S)CCOC(C)=O (racemic) [(+−)-3-mercaptohexyl acetate]
[2]; n-octanol/water
  logP: 2.64
[3]; [9]
  Log P (n-octanol/water): 2.64

## CC(=O)OC(C)CCC=C(C)CCC=C(C)C (stereo not drawn) [1,5,9-TRIMETHYL-4,8-DECADIENYL ACETATE]
[2]; n-octanol/water
  logP: 5.28
[3]; [8]
  Log P (n-octanol/water): 5.28

## O=C(OCc1ccccc1)c1ccccc1 [BENZYL BENZOATE]
[2]; n-octanol/water
  logP: 3.64
[3]; Table 7, citrus note
  Log P (n-octanol/water): 3.64

## C=CC(C)(O)CCC=C(C)C (racemic) [(+−)-3,7-dimethyl-1,6-octadien-3-ol]
[4]
  Odor Threshold: 8.89E−05 μg/l air

## CCCCCC(=O)OCC [ETHYL HEXANOATE]
[2]; n-octanol/water
  logP: 3.12
[3]; [5]
  Log P (n-octanol/water): 3.12
[3]; [6]
  Log P (n-octanol/water): 3.12
[3]; [9]
  Log P (n-octanol/water): 3.12

## CC/C=C\CCOC(=O)c1ccccc1 [(3Z)-3-hexen-1-yl benzoate]
[2]; n-octanol/water
  logP: 4.21
[3]; [8]
  Log P (n-octanol/water): 4.21
[3]; Table 7, citrus note
  Log P (n-octanol/water): 4.21

## O=C1CCCCCCC/C=C/CCCCCCO1 [(10E)-oxacycloheptadec-10-en-2-one]
[2]; n-octanol/water
  logP: 6.15
[3]; Table 7, citrus note
  Log P (n-octanol/water): 6.15

## O=C(Cc1ccccc1)OCCc1ccccc1 [2-PHENYLETHYL PHENYLACETATE]
[2]
  logP: 3.59
[3]; Table 7, citrus note
  Log P (n-octanol/water): 3.59
[3]; [5]
  Log P (n-octanol/water): 3.59
[3]; [6]
  Log P (n-octanol/water): 3.59

## CC(C)(O)CCC1CCCCC1 [4-CYCLOHEXYL-2-METHYL-2-BUTANOL]
[2]; n-octanol/water
  logP: 3.93
[3]; Table 7, citrus note
  Log P (n-octanol/water): 3.93

## C/C=C/C(=O)C1C(C)=CCCC1(C)C (racemic)
[1]; [8]
  Volatility (μg/l air): 113.31 μg/l air
[2]; n-octanol/water
  logP: 3.65
[3]; [8]
  Log P (n-octanol/water): 3.65
[3]; [5]
  Log P (n-octanol/water): 3.65
[3]; [7]
  Log P (n-octanol/water): 3.65

## C=CCCC(=O)C1=CCCC(C)(C)C1 [1-(5,5-dimethyl-1-cyclohexen-1-yl)-4-penten-1-one]
[2]; n-octanol/water
  logP: 3.89
[3]; [8]
  Log P (n-octanol/water): 3.89

## CCCCCC(=O)OC [METHYL HEXANOATE]
[2]; n-octanol/water
  logP: 2.65
[3]; [9]
  Log P (n-octanol/water): 2.65

## CCCCC/C=C\C=C\C(=O)OCC [ethyl (2E,4Z)-2,4-decadienoate]
[2]; n-octanol/water
  logP: 4.69
[3]; [8]
  Log P (n-octanol/water): 4.69

## CC/C=C\CC1=C(C)CCC1=O
[1]; [5]
  Volatility (μg/l air): 56.72 μg/l air
[1]; [6]
  Volatility (μg/l air): 56.72 μg/l air
[2]; n-octanol/water
  logP: 2.61
[3]; [6]
  Log P (n-octanol/water): 2.61

## CC(=O)OC/C=C(/C)CCC=C(C)C [(2Z)-3,7-dimethyl-2,6-octadien-1-yl acetate]
[2]; n-octanol/water
  logP: 3.81
[3]; [8]
  Log P (n-octanol/water): 3.81

## C=C(C)CC(C)OC(=O)C(C)C (racemic)
[1]; [5]
  Volatility (μg/l air): 9902.98 μg/l air
[1]; [6]
  Volatility (μg/l air): 9902.98 μg/l air
[2]; n-octanol/water
  logP: 3.57
[3]; [5]
  Log P (n-octanol/water): 3.57
[3]; [6]
  Log P (n-octanol/water): 3.57

## C/C=C(\C)C(=O)OCCCCCC [hexyl (2E)-2-methyl-2-butenoate]
[2]; n-octanol/water
  logP: 4.8
[3]; [5]
  Log P (n-octanol/water): 4.80
[3]; [9]
  Log P (n-octanol/water): 4.80

## CCCCCCOC(=O)C(C)C [hexyl 2-methylpropanoate]
[2]; n-octanol/water
  logP: 4.31
[3]; [9]
  Log P (n-octanol/water): 4.31

## CC/C=C\CCOC(=O)OC [(3Z)-hex-3-en-1-yl methyl carbonate]
[2]; n-octanol/water
  logP: 2.97
[3]; [9]
  Log P (n-octanol/water): 2.97

## CCCCCC/C(C=O)=C\c1ccccc1 [(2E)-2-benzylideneoctanal]
[2]; n-octanol/water
  logP: 4.86
[3]; [8]
  Log P (n-octanol/water): 4.86

## CC(=O)OC(c1ccccc1)C(Cl)(Cl)Cl (racemic) [(+−)-2,2,2-TRICHLORO-1-PHENYLETHYL ACETATE]
[2]; n-octanol/water
  logP: 3.2
[3]
  Log P (n-octanol/water): 3.20

## CCCCCCC1CCCC(=O)O1 (stereo not drawn) [6-hexyltetrahydro-2H-pyran-2-one]
[1]; [8]
  Volatility (μg/l air): 4.64 μg/l air
[1]; [5]
  Volatility (μg/l air): 4.64 μg/l air
[1]; [6]
  Volatility (μg/l air): 4.64 μg/l air
[2]; n-octanol/water
  logP: 3
[3]; [5]
  Log P (n-octanol/water): 3.00
[3]; [6]
  Log P (n-octanol/water): 3.00

## C=CCCCCCCCCO [9-DECEN-1-OL]
[2]; n-octanol/water
  logP: 3.7
[3]; Table 7, citrus note
  Log P (n-octanol/water): 3.70

## C/C=C/c1ccc(O)c(OC)c1 [2-methoxy-4-[(1E)-1-propen-1-yl]phenol]
[1]; [5]
  Volatility (μg/l air): 11.28 μg/l air
[1]; [6]
  Volatility (μg/l air): 11.28 μg/l air
[2]; n-octanol/water
  logP: 2.15
[3]; [6]
  Log P (n-octanol/water): 2.15

## C/C=C/c1ccc(OC(C)=O)c(OC)c1 [(E)-2-METHOXY-4-(1-PROPENYL)PHENYL ACETATE]
[2]; n-octanol/water
  logP: 2.56
[3]; Table 7, citrus note
  Log P (n-octanol/water): 2.56

## C=CCSSCC=C [DIALLYL DISULFIDE]
[1]; [5]
  Volatility (μg/l air): 5487.52 μg/l air
[1]; [6]
  Volatility (μg/l air): 5487.52 μg/l air
[2]
  logP: 3.3
[3]; [6]
  Log P (n-octanol/water): 3.30

## O=Cc1ccccc1 [BENZALDEHYDE]
[2]
  logP: 1.33
[3]; [5]
  Log P (n-octanol/water): 1.33

## CCCC(=O)OCC [ETHYL BUTANOATE]
[2]; n-octanol/water
  logP: 2.03
[3]; [9]
  Log P (n-octanol/water): 2.03

## CC1CCC(=O)O1 (racemic) [(+−)-4-PENTANOLIDE]
[2]
  logP: -0.12
[3]; Table 7, citrus note
  Log P (n-octanol/water): −0.12

## C=C(C)C1CC=C(C)CC1 (single isomer, unassigned; (+)) [(+)-LIMONENE]
[4]
  Odor Threshold: 1.29E−01 μg/l air

## CCCCCCOC(C)=O [HEXYL ACETATE]
[2]; n-octanol/water
  logP: 3.09
[3]; [9]
  Log P (n-octanol/water): 3.09

## CCCCC(CC)C(=O)OC (racemic) [(+−)-methyl 2-ethylhexanoate]
[1]; [7]
  Volatility (μg/l air): 6677.64 μg/l air
[2]; n-octanol/water
  logP: 3.37
[3]; [7]
  Log P (n-octanol/water): 3.37

## CCC(=O)OCc1ccccc1 [BENZYL PROPANOATE]
[2]; n-octanol/water
  logP: 2.35
[3]; [8]
  Log P (n-octanol/water): 2.35

## COc1cc(C=O)ccc1O [4-hydroxy-3-methoxybenzaldehyde]
[1]; [5]
  Volatility (μg/l air): 4.24 μg/l air
[1]; [6]
  Volatility (μg/l air): 4.24 μg/l air
[2]; n-octanol/water
  logP: 0.72
[3]; [6]
  Log P (n-octanol/water): 0.72

## COc1cc(C=O)ccc1OC(=O)C(C)C
[1]; [8]
  Volatility (μg/l air): 1.01 μg/l air
[1]; [5]
  Volatility (μg/l air): 1.01 μg/l air
[1]; [6]
  Volatility (μg/l air): 1.01 μg/l air
[2]; n-octanol/water
  logP: 1.9
[3]; [5]
  Log P (n-octanol/water): 1.90
[3]; [6]
  Log P (n-octanol/water): 1.90

## CCCCCCCC1CCCC(=O)O1 (racemic) [(+−)-6-heptyltetrahydro-2H-pyran-2-one]
[1]; [8]
  Volatility (μg/l air): 0.90 μg/l air
[1]; [5]
  Volatility (μg/l air): 0.90 μg/l air
[1]; [6]
  Volatility (μg/l air): 0.90 μg/l air
[2]; n-octanol/water
  logP: 3.42
[3]; [5]
  Log P (n-octanol/water): 3.42
[3]; [6]
  Log P (n-octanol/water): 3.42

## CCCCCC1CCCC(=O)O1 (racemic) [(+−)-6-pentyltetrahydro-2H-pyran-2-one]
[1]; [8]
  Volatility (μg/l air): 9.61 μg/l air
[1]; [5]
  Volatility (μg/l air): 9.61 μg/l air
[1]; [6]
  Volatility (μg/l air): 9.61 μg/l air
[2]; n-octanol/water
  logP: 2.22
[3]; [5]
  Log P (n-octanol/water): 2.22
[3]; [6]
  Log P (n-octanol/water): 2.22
